From ChEMBL document CHEMBL2150939, “Synthesis and cytotoxicity of novel ursolic acid derivatives containing an acyl piperazine moiety” (Eur J Med Chem, 2012)

Columns and labels:
MGC-803 [1] = assay: Growth inhibition of human MGC803 cells at 10 uM after 72 hrs by MTT assay; type: functional; settings: MGC-803, 72 h, read-out: GI
Bcap37 [2] = assay: Growth inhibition of human Bcap37 cells at 10 uM after 72 hrs by MTT assay; type: functional; settings: Bcap37, 72 h, read-out: GI
[3] = Growth inhibition of mouse NIH/3T3 cells at 10 uM after 72 hrs by MTT assay; type: cell-based, NIH3T3; settings: read-out: GI
MGC-803 [4] = assay: Antiproliferative activity against human MGC803 cells after 72 hrs by MTT assay; type: functional, cell-based; settings: MGC-803, 72 h
Bcap37 [5] = assay: Antiproliferative activity against human Bcap37 cells after 72 hrs by MTT assay; type: functional, cell-based; settings: Bcap37, 72 h

| Structure (SMILES) | inhibition of growth at 10 µM (MGC-803 [1]) | inhibition of growth at 10 µM (Bcap37 [2]) | inhibition at 72 h, 10 µM [3] | IC50 (MGC-803 [4]) | IC50 (Bcap37 [5]) | IC50 (Bcap37 [5]; read-out: IC50) |
| --- | --- | --- | --- | --- | --- | --- |
| CCCCCCCCC(=O)N1CCN(CCOC(=O)[C@]23CC[C@@H](C)[C@H](C)[C@H]2C2=CC[C@@H]4[C@@]5(C)CC[C@H](O)C(C)(C)[C@@H]5CC[C@@]4(C)[C@]2(C)CC3)CC1 | 44.2% | 12.5% | 12% | > 20 µM |  |  |
| C=C/C=C/CC(=O)N1CCN(CCOC(=O)[C@]23CC[C@@H](C)[C@H](C)[C@H]2C2=CC[C@@H]4[C@@]5(C)CC[C@H](O)C(C)(C)[C@@H]5CC[C@@]4(C)[C@]2(C)CC3)CC1 | 23.4% | 14.7% | 35% |  |  |  |
| C[C@H]1[C@H](C)CC[C@]2(C(=O)OCCN3CCN(C(=O)c4cccnc4)CC3)CC[C@]3(C)C(=CC[C@@H]4[C@@]5(C)CC[C@H](O)C(C)(C)[C@@H]5CC[C@]43C)[C@H]12 | 22% | 24.5% | 52.3% |  |  |  |
| C[C@H]1[C@H](C)CC[C@]2(C(=O)OCCN3CCN(C(=O)c4ccc([N+](=O)[O-])cc4)CC3)CC[C@]3(C)C(=CC[C@@H]4[C@@]5(C)CC[C@H](O)C(C)(C)[C@@H]5CC[C@]43C)[C@H]12 | 24.3% | 19.1% | 65.4% |  |  |  |
| COc1cccc2c1C(=O)c1c(O)c3c(c(O)c1C2=O)C[C@@](O)(C(=O)CO)C[C@@H]3O[C@H]1C[C@H](N)[C@H](O)[C@H](C)O1 [DOXORUBICIN] | 92.1% | 92.1% | 99.2% | 0.7 µM | 1.28 µM |  |
| C[C@H]1[C@H](C)CC[C@]2(C(=O)OCCN3CCN(C(=O)Cc4ccc(Cl)cc4)CC3)CC[C@]3(C)C(=CC[C@@H]4[C@@]5(C)CC[C@H](O)C(C)(C)[C@@H]5CC[C@]43C)[C@H]12 | 68.6% | 52% | 2.9% | 8.59 µM |  | 10 µM |
| C[C@H]1[C@H](C)CC[C@]2(C(=O)OCCN3CCN(C(=O)c4cccnc4Cl)CC3)CC[C@]3(C)C(=CC[C@@H]4[C@@]5(C)CC[C@H](O)C(C)(C)[C@@H]5CC[C@]43C)[C@H]12 | 34.3% | 29% | 4.3% | 14 µM |  |  |
| C[C@H]1[C@H](C)CC[C@]2(C(=O)OCCBr)CC[C@]3(C)C(=CC[C@@H]4[C@@]5(C)CC[C@H](O)C(C)(C)[C@@H]5CC[C@]43C)[C@H]12 | 39.4% | 23.1% | 11% | 12.4 µM |  |  |
| C[C@H]1[C@H](C)CC[C@]2(C(=O)OCCN3CCN(C(=O)c4cc([N+](=O)[O-])cc([N+](=O)[O-])c4)CC3)CC[C@]3(C)C(=CC[C@@H]4[C@@]5(C)CC[C@H](O)C(C)(C)[C@@H]5CC[C@]43C)[C@H]12 | 24.7% | 10.7% | 37.2% |  |  |  |
| C[C@H]1[C@H](C)CC[C@]2(C(=O)OCCN3CCN(C(=O)c4ccc(F)cc4)CC3)CC[C@]3(C)C(=CC[C@@H]4[C@@]5(C)CC[C@H](O)C(C)(C)[C@@H]5CC[C@]43C)[C@H]12 | 71.8% | 83.7% | 71.3% | 7.29 µM |  | 5.12 µM |
| COc1ccc(C(=O)N2CCN(CCOC(=O)[C@]34CC[C@@H](C)[C@H](C)[C@H]3C3=CC[C@@H]5[C@@]6(C)CC[C@H](O)C(C)(C)[C@@H]6CC[C@@]5(C)[C@]3(C)CC4)CC2)cc1OC | 24.5% | 51.8% | 73.1% |  |  | 11.1 µM |
| C[C@H]1[C@H](C)CC[C@]2(C(=O)OCCN3CCN(C(=O)c4ccccc4Cl)CC3)CC[C@]3(C)C(=CC[C@@H]4[C@@]5(C)CC[C@H](O)C(C)(C)[C@@H]5CC[C@]43C)[C@H]12 | 93% | 69.1% | 29.8% | 4.66 µM |  | 7.26 µM |
| C[C@H]1[C@H](C)CC[C@]2(C(=O)OCCN3CCN(C(=O)c4ccccc4)CC3)CC[C@]3(C)C(=CC[C@@H]4[C@@]5(C)CC[C@H](O)C(C)(C)[C@@H]5CC[C@]43C)[C@H]12 | 21.4% | 23.9% | 19.1% |  |  |  |
| C[C@H]1[C@H](C)CC[C@]2(C(=O)OCCN3CCN(C(=O)c4ccccc4C(F)(F)F)CC3)CC[C@]3(C)C(=CC[C@@H]4[C@@]5(C)CC[C@H](O)C(C)(C)[C@@H]5CC[C@]43C)[C@H]12 | 71.2% | 38.6% | 16.2% | 8.72 µM |  | 10.9 µM |
| C[C@H]1[C@H](C)CC[C@]2(C(=O)OCCN3CCN(C(=O)c4ccc(F)cc4F)CC3)CC[C@]3(C)C(=CC[C@@H]4[C@@]5(C)CC[C@H](O)C(C)(C)[C@@H]5CC[C@]43C)[C@H]12 | 32.1% | 60.5% | 18.1% | 12.5 µM |  | 8.31 µM |
| C[C@H]1[C@H](C)CC[C@]2(C(=O)OCCN3CCN(C(=O)c4cc(Cl)ccc4[N+](=O)[O-])CC3)CC[C@]3(C)C(=CC[C@@H]4[C@@]5(C)CC[C@H](O)C(C)(C)[C@@H]5CC[C@]43C)[C@H]12 | 57.3% | 33.2% | 77.7% | 9.41 µM |  |  |
| C[C@H]1[C@H](C)CC[C@]2(C(=O)OCCN3CCN(C(=O)c4cccc(F)c4)CC3)CC[C@]3(C)C(=CC[C@@H]4[C@@]5(C)CC[C@H](O)C(C)(C)[C@@H]5CC[C@]43C)[C@H]12 | 45.3% | 32.1% | 33.5% | > 20 µM |  |  |
| CC(C)c1ccc(C(=O)N2CCN(CCOC(=O)[C@]34CC[C@@H](C)[C@H](C)[C@H]3C3=CC[C@@H]5[C@@]6(C)CC[C@H](O)C(C)(C)[C@@H]6CC[C@@]5(C)[C@]3(C)CC4)CC2)cc1 | 72.3% | 45.5% | 5.5% | 5.02 µM |  | 11.8 µM |
| Cc1ccccc1C(=O)N1CCN(CCOC(=O)[C@]23CC[C@@H](C)[C@H](C)[C@H]2C2=CC[C@@H]4[C@@]5(C)CC[C@H](O)C(C)(C)[C@@H]5CC[C@@]4(C)[C@]2(C)CC3)CC1 | 98.9% | 94.8% | 60.3% | 3.59 µM |  | 5.34 µM |
| C[C@H]1[C@H](C)CC[C@]2(C(=O)OCCN3CCN(C(=O)/C=C/c4ccccc4)CC3)CC[C@]3(C)C(=CC[C@@H]4[C@@]5(C)CC[C@H](O)C(C)(C)[C@@H]5CC[C@]43C)[C@H]12 | 51.1% | 54.4% | 39% | 12.6 µM |  | 9.22 µM |
| C[C@H]1[C@H](C)CC[C@]2(C(=O)OCCN3CCNCC3)CC[C@]3(C)C(=CC[C@@H]4[C@@]5(C)CC[C@H](O)C(C)(C)[C@@H]5CC[C@]43C)[C@H]12 | 86.6% | 84.4% | 60.1% | 7.25 µM |  | 7.5 µM |
| C[C@H]1[C@H](C)CC[C@]2(C(=O)OCCN3CCN(C(=O)c4c(F)cccc4Cl)CC3)CC[C@]3(C)C(=CC[C@@H]4[C@@]5(C)CC[C@H](O)C(C)(C)[C@@H]5CC[C@]43C)[C@H]12 | 92.1% | 85.3% | 24.4% | 4.18 µM |  | 4.32 µM |
| C[C@H]1[C@H](C)CC[C@]2(C(=O)OCCN3CCN(C(=O)c4ccncc4)CC3)CC[C@]3(C)C(=CC[C@@H]4[C@@]5(C)CC[C@H](O)C(C)(C)[C@@H]5CC[C@]43C)[C@H]12 | 32.1% | 8.3% | 55.4% | 13.3 µM |  |  |
| C[C@H]1[C@H](C)CC[C@]2(C(=O)OCCN3CCN(C(=O)c4ccnc(Cl)c4)CC3)CC[C@]3(C)C(=CC[C@@H]4[C@@]5(C)CC[C@H](O)C(C)(C)[C@@H]5CC[C@]43C)[C@H]12 | 24.1% | 19% | 44.3% |  |  |  |
